Earlier results as cited in US20050220825A1, “Molecular dispersions of drospirenone” (priority 2004, published 2005).

Key:
[1] = within 30 minutes, hydrochloric acid solution pH about 1.0
[2] = drospirenone in micronised form; background statement

- drospirenone degraded into its therapeutically inactive isomer [1]: ~50%
- drospirenone dissolved at 30 minutes after start of dissolution testing [2]: at least 70%
Compound: C[C@]12CCC(=O)C=C1[C@@H]1C[C@@H]1[C@H]1[C@@H]3[C@@H]4C[C@@H]4[C@@]4(CCC(=O)O4)[C@@]3(C)CC[C@@H]12 [drospirenone]
